Results reported in US20240307351A1, “AGENT FOR ANTI-AGING OR FOR CELLULAR REJUVENATION” (TOHOKU UNIVERSITY, priority 2022, published 2024).

Columns and labels:
PPARγ Gene = assay: Quantitative PCR of PPARγ Gene in brown adipocytes of Ndufs4−/− mice; format: in vivo, mouse; conditions: 10 mg/day per kg, 50 days, vs CMC administration group
Protocol: (§1) Compound #5 was administered to NDUFS4 homozygous knockout mice (Ndufs4−/−mice) (4 weeks old) at a dose of 10 mg/day per kg of mouse weight for 50 days ([Compound #5 administration group]).
(§2) In addition, CMC (carboxymethylcellulose) was administered to NDUFS4 homozygous knockout mice (Ndufs4−/−mice) at a dose of 10 mg/day per kg of mouse weight for 50 days ([CMC administration group; Control group]).
(§3) Brown adipocytes were collected from the mice of [Compound #5 administration group] and [CMC administration group]. Total RNA was extracted from the brown adipocytes, and cDNA was prepared therefrom and used for measurement of mRNA expression level. The measurement was performed by a quantitative PCR method. The expression level of mRNA was determined with a relative ratio to β-actin used as an internal standard. As primers and probes, the following commercially available products (manufactured by Thermo Fisher Scientific Inc., and the like) were used. • Mouse Acts (actin beta, β-actin) Mm02619580_g1, Cat #4331182 • Mouse Ucp1 (uncoupling protein 1), Mm00494069_m1, Cat #4331182 • Mouse Pparg (PPARγ, peroxisome proliferator activated receptor gamma), Mm00440945_m1, Cat #4331182p • Mouse Fabp4 (fatty acid binding protein 4), Mm00445880_m1, Cat #4331182

[1] = system: genomic DNA of the liver cells; assay: Degree of methylation of genomic DNA of liver cells by the bisulfite method; format: in vivo, mouse; conditions: oral, 50 mg/kg/day, 2 months
Protocol: Water-suspended Compound #5 was orally administered to C57BL6 mice (12 weeks old) at a dose of 50 mg/kg/day per kg of mouse weight for 2 months ([MA5 high dose addition group], n=5). The degree of methylation of the genomic DNA of the liver cells of the young mice was measured by the bisulfite method.
Water-suspended Compound #5 was orally administered to C57BL6 mice (92 weeks old) at a dose of 50 mg/kg/day per kg of mouse weight for 2 months ([MA5 addition group], n=5). The degree of methylation of the genomic DNA of the liver cells of the aged mice was measured by the bisulfite method. In Table 9 and Table 10, “Count” represents how many genes were related among genes related to the pathway. For example, in a pathway involving 20 genes, when there are three genes whose expression levels have been varied by administration of Compound #5, Count is 3, and “ %” thereof is a numerical value calculated by (3/20)×100.
“P-value” represents the p-value of the between-group comparison of pathways, and “Benjamini” represents the p-value calculated using the linear step-up method of Benjamini and Hochberg (1995) (see, for example, https://david.ncifcrf.gov/helps/functional_annotation.html for calculation method).

[2] = system: NDUFS4 homozygous knockout mice (Ndufs4−/−mice); assay: Electron microscopic observation of liver tissue (fatty liver) of Ndufs4−/− mice; format: in vivo; conditions: oral, 0.1 kg/day per mg of mouse weight, 24 days, vs Control 1 group (water)
Excerpt: Compound #5 was orally administered to NDUFS4 homozygous knockout mice (Ndufs4−/−mice) (4 weeks old) at a dose of 0.1 kg/day per mg of mouse weight for 24 days ([Compound #5 administration group]).
In addition, water was orally administered to NDUFS4 homozygous knockout mice (Ndufs4−/−mice) for 24 days ([DMSO group; Control 1 group]). Further, water was orally administered to wild-type mice for 24 days ([Control 2 group]).

FABP4 Gene = assay: Quantitative PCR of FABP4 Gene in brown adipocytes of Ndufs4−/− mice; format: in vivo, mouse; conditions: 10 mg/day per kg, 50 days, vs CMC administration group
Protocol: as §1, §2, §3

[3] = system: NDUFS4 homozygous knockout mice (Ndufs4−/−mice); assay: HE staining of brown adipose tissue of Ndufs4−/− mice; format: in vivo, mouse; conditions: 10 mg/day per kg, 50 days, compared with CMC administration group
Protocol: Compound #5 was administered to NDUFS4 homozygous knockout mice (Ndufs4−/−mice) (28 days old) at a dose of 10 mg/day per kg of mouse weight for 50 days ([Compound #5 administration group]).
as §2
Since the NDUFS4 homozygous knockout mice are mice with abnormal mitochondrial function and the abnormal mitochondrial function is one of aging phenomena, the NDUFS4 homozygous knockout mice can be used as one type of aging model mice.

[4] = Plasma metabolite analysis by CE-TOFMS in α-Klotho gene-deficient mice; format: in vivo; conditions: oral, 10 mg/kg mouse weight/day, 28 to 60 days old
Protocol: Water-suspended Compound #5 was orally administered to α-Klotho gene-deficient mice (28 days old) at a dose of 10 mg/kg mouse weight/day until 60 days old (Klotho homo KO mouse administration group, n=2).
In addition, water was orally administered to wild-type mice (28 days old) and α-Klotho gene-deficient mice (28 days old) until 60 days old (n=2 for each of the wild-type non-administrated group and the Klotho homo KO mouse non-administrated group).
Plasma was prepared from each 60-day-old mouse, and the effect of administration of Compound #5 on plasma metabolites was subjected to target analysis (comprehensive analysis) by CE-TOFMS (manufactured by Human Metabolome Technologies, Inc.).

[5] = system: Mouse inner ear cells HEI-OC1; assay: RNA-Seq and ChIP-Atlas analysis of HEI-OC1 cells; format: cell-based; conditions: 10 µM
Protocol: Mouse inner ear cells HEI-OC1 were cultured in 10% FBS-containing DMEM medium containing 10 µM of Compound #5 (dissolved in 0.1% DMSO) ([MA5 addition group], n=5).
In addition, mouse inner ear cells HEI-OC1 were cultured in 10% FBS-containing DMEM medium containing […] 0.1% DMSO ([Vehicle group], n=5).
RNA sequencing (RNA-Seq) analysis was performed on the HEI-OC1 cells in [MA5 addition group] and [Vehicle group] to identify genes whose expression levels changed (increased or decreased) in [MA5 addition group] as compared with [Vehicle group]. Using the results of these gene names, integrated analysis with ChIP-Atlas was performed to investigate transcription factors possibly related to these genes. The results of ChIP enrichment analysis (ChEA) are shown in Table 7, and the results of analysis by ENCODE and ChEA consensus TFs from ChIP-X are shown in Table 8.

Structure (SMILES): O=C(CC(C(=O)O)c1c[nH]c2ccccc12)c1ccc(F)cc1F (stereo not drawn) [Compound #5, 4-(2,4-difluorophenyl)-2-(1H-indole-3-yl)-4-oxo-butanoic acid]
- expression of PPARγ Gene (PPARγ Gene): significantly higher
- methylation of insulin resistance pathway ([1]; aged mice (92 weeks old)): inhibited
- methylation of insulin signaling pathway ([1]; aged mice (92 weeks old)): inhibited
- methylation of Insulin secretion pathway ([1]; young mice (12 weeks old)): inhibited
- methylation of Signaling pathways regulating pluripotency of stem cells ([1]; young mice (12 weeks old)): inhibited
- methylation of Wnt signaling pathway ([1]; young mice (12 weeks old)): inhibited
- fat deposition in hepatocytes (fatty liver) [2]: clear reduction
- expression of FABP4 Gene (FABP4 Gene): higher
- size of lipid droplets in brown adipose tissue [3]: decrease
- spermidine in plasma [4]: increased
- transcription factors related to genes whose expression increased (ChIP enrichment analysis, ChEA) ([5]; Table 7): SUZ^12 and EZH2, which are factors constituting polycomb repressive complex-2 (PRC2), which methylates histones, and SOX2
- transcription factors related to genes whose expression increased (ENCODE and ChEA consensus TFs from ChIP-X) ([5]; Table 8): PPARG (peroxisome proliferator-activated receptor γ), which is a longevity-related gene, MYC, which is one of the reprogramming factors necessary for the production of iPS cells, TRIM28
